According to patent US12258424B2, “Polypeptides and compositions comprising the same” (priority 2020, dated 2025):
Residues, ends and D or L forms follow the SMILES beside them.

Columns and labels:
[1] = biological target: T1, recombinant human PD-L1 ECD protein (Homo sapiens, UniProt Q9NZQ7); experiment: SPR binding kinetics and affinity to immobilized human PD-L1; settings: read-out: Ka
T1 construct: against the recombinant human PD-L1 ECD protein were evaluated using SPR; purchased G&P Biosciences FCL0784B
Description: In such aspects, the equilibrium dissociate constant KD value against recombinant human PD-L1 can be determined according to an KD to PD-L1 SPR Assay. The KD to PD-L1 SPR Assay can include the use of Surface Plasmon Resonance (SPR), such as the B14500, Biosensing Instrument, and can include the following procedures. The PD-L1 protein can be diluted to 10 μg/mL with sodium acetate buffer (pH 5.0, GE Healthcare, PA) and covalently coated onto a CM5 sensor chip (CM Dextran Sensor Chip, Biosensing Instrument) using the standard Amine Coupling Kit (GE Healthcare, PA). Approximately 6500 RU of PD-L1 protein are immobilized onto the chip. A second channel is used as a reference. HBS-EP+ buffer (GE Healthcare) can be employed at a flow rate of 60 μL/min. A series of concentrations of each peptide (15, 30, 60, 125, 250, 500, 1000, 5000 and 10,000 nM) is prepared in HBS-EP+ running buffer to obtain the equilibrium dissociation constant (KD) values of the peptides. The CM5 sensor chip can be regenerated with 10 mM NaOH for 20 s. The results can be analyzed using the software of Bi data analysis software.
Evaluation of Binding Kinetics and Affinity By Surface Plasmon Resonance (SPR). Binding affinities of the PD-L1 specific peptides for human PD-L1 protein were determined by SPR (B14500, Biosensing Instrument). PD-L1 protein was diluted to 10 μg/mL with sodium acetate buffer (pH 5.0, GE Healthcare, PA) and covalently coated onto a CM5 sensor chip (CM Dextran Sensor Chip, Biosensing Instrument) using the standard Amine Coupling Kit (GE Healthcare, PA). Approximately 6500 RU of PD-L1 protein were immobilized onto the chip. A second channel was used as a reference. HBS-EP+ buffer (GE Healthcare) was employed at a flow rate of 60 μL/min. A series of concentrations of each peptide (15, 30, 60, 125, 250, 500, 1000, 5000 and 10,000 nM) were prepared in HBS-EP+ running buffer to obtain the equilibrium dissociation constant (KD) values of the peptides. The CM5 sensor chip was regenerated with 10 mM NaOH for 20 seconds. The results were analyzed using the software of Bi data analysis software. Binding affinities of the anti-PD-L1 peptides to BSA was also assessed following the procedure for human PD-L1.

hPD-L1 = hPD-L1 (Homo sapiens, UniProt Q9NZQ7); experiment: Blockade of the PD-1/PD-L1 interaction, plate coated with human PD-L1 protein; format: binding; design: PD-L1 protein (G&P Biosciences, human PD-L1 ECD, cat #FCL0784B); purchased G&P Biosciences FCL0784B (PD-L1)
Description: (§1) Ninety-six-well plates were coated with 100 ng of PD-L1 protein (G&P Biosciences, human PD-L1 ECD, cat #FCL0784B. mouse PD-L1, cat #FCL3502B) and later blocked with 2% BSA for 2 hours at room temperature. Various concentrations of peptides were loaded into the wells and incubated for 1 hour at room temperature. […] Streptavidin-HRP (R & D systems) and chromogenic substrate were added into the wells. OD450 was then recorded and referenced to OD540.

[2] = test system: CT26 colorectal tumor-bearing mouse model; experiment: Anti-tumor activity in CT26 tumor-bearing Balb/C mice; format: in vivo
From the text: Animal Study. The animal protocol was approved by the University of Missouri-Kansas City, Institutional Animal Care and Use Committee (IACUC). Five-week old male and female Balb/c mice were purchased from Charles Rivers Laboratories (Wilmington, Mass.) and housed in a temperature and humidity controlled room on a 12-hour light-dark cycle. Approximately 5×10^5 CT26 cells were subcutaneously injected into the right flank. The mice were randomly divided into five different groups (10 mice/group, 50% female, 50% male). The mice were intraperitoneally injected with 2 mg/kg peptide daily when the tumor size reached 50-100 mm^3. The anti-mouse PD-L1 antibody (10F.9G2, BioXcell) was administrated as a positive control at a dose of 10 mg/kg every two days. The tumor size was assessed with a caliper and calculated with the formula 0.5×length×width^2. ELISA kits of PD-L1 (Cat #DY1019-05), IFNγ (Cat #DY485-05), and IL-6 (Cat #DY406-05) were used to measure the expressions of PD-L1, IFNγ, and IL-6, respectively, in tumors as per the company's instructions (R & D Systems, Minneapolis, MN).
The anti-mouse PD-L1 antibody (BioXcell, 10F.9G2) was administered intraperitoneally every other day at 10 mg/kg. […] In general, CLP002 (SEQ ID NO:2) exerted a better tumor inhibitory effect than CLP003 (SEQ ID NO:3), which was similar to the antibody. […] In FIG. 6e the weight of the tumors harvested at day 14 is shown. The results were represented as the mean±SD (n=10). It is noteworthy that the peptides were screened against the human PD-L1 protein, which, in fact, would compromise the anti-tumor activity of the peptides in a mouse model.

DU145 cancer cell = format: cell-based, human
Description: as §1
The blocking efficiency of the anti-PD-L1 peptides at 10 μM (FIG. 2c). […] The IC50 of each peptide was also determined using recombinant human PD-L1 protein and DU-145 cancer cells.

[3] = test system: Jurkat T cells co-cultured with DU-145 cancer cells; experiment: Jurkat T cell apoptosis in co-culture with DU-145 cells (Annexin V/PI); format: cell-based, human; settings: co-culture with DU-145 (15.1% untreated); peptide 5 μM or antibody 1 μM, 24 hours
Description: Proliferation and Apoptosis Assays. […] Briefly, 3×10^4 Jurkat T cells were cultured alone or co-cultured with 1.5×10^5 DU-145 cancer cells in a 24-well plate for the proliferation assay. For the apoptosis assay, 6×10^4 Jurkat T cells were cultured alone or co-cultured with 3×10^5 DU-145 cancer cells in a 6-well plate. After incubation with the anti-PD-L1 peptides (5 μM) or anti-PD-L1 antibody (1 μM) for 24 hours, Jurkat T cells were harvested from the supernatant. Proliferation of Jurkat cells was determined using the CellTiter-Glo luminescent cell viability assay (Promega, WI), and apoptosis of the cells were determined using the Dead Cell Apoptosis Kit with Annexin V Alexa Fluor® 488 and Propidium Iodide (Thermo-Fisher Scientific, Pittsburgh, PA) as we described before^21.

Sequence of hPD-L1 (Q9NZQ7 19-238 limits assumed): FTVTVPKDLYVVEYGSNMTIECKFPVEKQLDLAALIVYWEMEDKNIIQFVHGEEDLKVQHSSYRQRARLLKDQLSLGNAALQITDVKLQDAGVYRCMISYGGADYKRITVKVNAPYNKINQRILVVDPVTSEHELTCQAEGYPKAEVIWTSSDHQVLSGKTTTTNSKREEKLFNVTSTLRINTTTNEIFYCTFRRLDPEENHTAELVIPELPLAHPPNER
T1 sequence (Q9NZQ7 19-238 limits assumed): as above

For CC(C)C[C@H](NC(=O)[C@H](CC(N)=O)NC(=O)[C@H](Cc1c[nH]c2ccccc12)NC(=O)[C@@H](NC(=O)[C@H](Cc1ccc(O)cc1)NC(=O)[C@H](Cc1ccc(O)cc1)NC(=O)[C@H](CO)NC(=O)[C@H](CCCNC(=N)N)NC(=O)[C@H](Cc1c[nH]cn1)NC(=O)[C@@H](N)Cc1c[nH]c2ccccc12)[C@@H](C)O)C(=O)N[C@@H](CC(N)=O)C(=O)N[C@H](C(=O)O)[C@@H](C)O [CLP002] (H-WHRSYYTWNLNT-OH; N-terminus and C-terminus assumed), the kon [1] was 4520 M⁻¹ s⁻¹, the “Blocking Efficiency (%)” value (hPD-L1; human PD-L1 protein) was 85% and the “Blocking of the human PD-1/PD-L1 interaction (in words)” value (hPD-L1; peptides at 10 μM, FIG. 2c) was “highest blocking efficiency”. The IC50 (hPD-L1; plate coated with human PD-L1 protein) was 2.17 µM, the Tumor growth ([2]; peptides 2 mg/kg i.p. daily, antibody 10 mg/kg i.p. every other day) was “effectively suppressed tumor growth” and the “Tumor weights at day 14” value ([2]; versus saline group) was “significantly smaller than the saline group”. The IC50 (DU145 cancer cell; 2 h) was 1.43 µM, the “Blocking Efficiency (%)” value (DU145 cancer cell; DU-145 cancer cells) was 80% and the “Apoptosis of Jurkat cells” value [3] was 10.2%.
